Assay results as given in patent publication US10899788B2, “Cyclic phosphate substituted nucleoside compounds and methods of use thereof for the treatment of viral diseases” (MERCK SHARP & DOHME CORP., priority 2016, dated 2021).

Tests used:
[1] = system: HCV replicon cells (1b-Con1); assay: Replicon activity assay (cell-based anti-HCV activity); settings: Hepatitis C virus, 72 h, three days post-dosing, replicon RNA level by real-time RT-PCR, read-out: EC50 (1b) Range
Protocol: (§1) To measure cell-based anti-HCV activity of the compounds of the present invention, replicon cells (1b-Con1) are seeded at 5000 cells/well in 96-well plates one day prior to treatment with a compound of the invention. Various concentrations of a test compound of the invention in DMSO are then added to the replicon cells, with the final concentration of DMSO at 0.5% and fetal bovine serum at 10% in the assay media. Cells are harvested three days post-dosing, and the replicon RNA level is determined using real-time RT-PCR (Taqman assay) with GAPDH RNA as endogenous control. EC50 values are calculated from experiments with 10 serial twofold dilutions of the inhibitor in triplicate. To measure cytotoxicity in replicon cells of an inhibitor, an MTS assay is performed according to the manufacturer's protocol for CellTiter 96 Aqueous One Solution Cell Proliferation Assay (Promega, Cat #G3580) three days post dosing on cells treated identically as in replicon activity assays. […] Cytotoxicity in other types of cells may be measured using the same MTS protocol.
(§2) Data were obtained using this method for selected compounds of the present invention, and are set forth below in Table 2.

[2] = Cytotoxicity assay in replicon cells (MTS); assay type: cell-based; settings: HCV replicon cells (1b-Con1), three days post dosing, head prints EDU, method MTS, read-out: CC50 (EDU) Range
Protocol: as §1, §2

Row | Compound | EC50 [1] | CC50 at 3 days [2]
1 | C#C[C@]1(C)[C@@H]2O[P@@](=O)(OCCCC(=O)OC(C)C)OC[C@H]2O[C@H]1n1ccc(=O)[nH]c1=O [Compound 11A] | 1 to 10 µM | > 50 µM
2 | C#C[C@]1(C)[C@@H]2O[P@](=O)(OCCCC(=O)OC(C)C)OC[C@H]2O[C@H]1n1ccc(=O)[nH]c1=O [Compound 11B] | 0.25 to 1 µM | > 50 µM
3 | CC(C)OC(=O)CCCO[P@@]1(=O)OC[C@H]2O[C@@H](n3ccc(=O)[nH]c3=O)[C@](C)(N)[C@@H]2O1 [Compound 12A] | > 10 µM | > 50 µM
4 | CC(C)OC(=O)CCCO[P@]1(=O)OC[C@H]2O[C@@H](n3ccc(=O)[nH]c3=O)[C@](C)(N)[C@@H]2O1 [Compound 12B] | > 10 µM | > 50 µM
5 | C#C[C@@]1(O)[C@@H]2O[P@@](=O)(OCCCC(=O)OC(C)C)OC[C@H]2O[C@H]1n1ccc(=O)[nH]c1=O [Compound 13A] | > 10 µM | > 50 µM
6 | C#C[C@@]1(O)[C@@H]2O[P@](=O)(OCCCC(=O)OC(C)C)OC[C@H]2O[C@H]1n1ccc(=O)[nH]c1=O [Compound 13B] | 1 to 10 µM | > 50 µM
7 | CC(C)OC(=O)CCCCO[P@@]1(=O)OC[C@H]2O[C@@H](n3ccc(=O)[nH]c3=O)[C@](C)(N)[C@@H]2O1 [Compound 14A] | > 10 µM | > 50 µM
8 | CC(C)OC(=O)CCCCO[P@]1(=O)OC[C@H]2O[C@@H](n3ccc(=O)[nH]c3=O)[C@](C)(N)[C@@H]2O1 [Compound 14B] | > 10 µM | > 50 µM
9 | C#C[C@]1(C)[C@@H]2O[P@@](=O)(OCCCCC(=O)OC(C)C)OC[C@H]2O[C@H]1n1ccc(=O)[nH]c1=O [Compound 15A] | > 10 µM | > 50 µM
10 | C#C[C@]1(C)[C@@H]2O[P@](=O)(OCCCCC(=O)OC(C)C)OC[C@H]2O[C@H]1n1ccc(=O)[nH]c1=O [Compound 15B] | > 10 µM | > 50 µM
11 | C#C[C@]1(C)[C@@H]2O[P@@](=O)(OCCCCC(=O)OC3CCCC3)OC[C@H]2O[C@H]1n1ccc(=O)[nH]c1=O [Compound 16A] | > 10 µM | > 50 µM
12 | C#C[C@]1(C)[C@@H]2O[P@](=O)(OCCCCC(=O)OC3CCCC3)OC[C@H]2O[C@H]1n1ccc(=O)[nH]c1=O [Compound 16B] | 1 to 10 µM | > 50 µM
13 | C[C@@]1(N)[C@@H]2O[P@@](=O)(OCCCCC(=O)OC3CCCC3)OC[C@H]2O[C@H]1n1ccc(=O)[nH]c1=O [Compound 17A] | > 10 µM | > 50 µM
14 | C[C@@]1(N)[C@@H]2O[P@](=O)(OCCCCC(=O)OC3CCCC3)OC[C@H]2O[C@H]1n1ccc(=O)[nH]c1=O [Compound 17B] | 1 to 10 µM | > 50 µM
15 | CC(C)OC(=O)CCCCO[P@@]1(=O)OC[C@H]2O[C@@H](n3ccc(=O)[nH]c3=O)[C@](C)(Cl)[C@@H]2O1 [Compound 18A] | 1 to 10 µM | > 50 µM
16 | CC(C)OC(=O)CCCCO[P@]1(=O)OC[C@H]2O[C@@H](n3ccc(=O)[nH]c3=O)[C@](C)(Cl)[C@@H]2O1 [Compound 18B] | 1 to 10 µM | > 50 µM
17 | C[C@@]1(Cl)[C@@H]2O[P@@](=O)(OCCCCC(=O)OC3CCCC3)OC[C@H]2O[C@H]1n1ccc(=O)[nH]c1=O [Compound 19A] | 1 to 10 µM | > 50 µM
18 | C[C@@]1(Cl)[C@@H]2O[P@](=O)(OCCCCC(=O)OC3CCCC3)OC[C@H]2O[C@H]1n1ccc(=O)[nH]c1=O [Compound 19B] | 0.25 to 1 µM | > 50 µM
19 | C#C[C@]1(C)[C@@H]2O[P@@](=O)(OCCCCC(=O)OCC)OC[C@H]2O[C@H]1n1ccc(=O)[nH]c1=O [Compound 20A] | > 10 µM | > 50 µM
20 | C#C[C@]1(C)[C@@H]2O[P@](=O)(OCCCCC(=O)OCC)OC[C@H]2O[C@H]1n1ccc(=O)[nH]c1=O [Compound 20B] | > 10 µM | > 50 µM
21 | C#C[C@]1(C)[C@@H]2O[P@@](=O)(OCCCCC(=O)OC)OC[C@H]2O[C@H]1n1ccc(=O)[nH]c1=O [Compound 22A] | > 10 µM | > 50 µM
22 | C#C[C@]1(C)[C@@H]2O[P@](=O)(OCCCCC(=O)OC)OC[C@H]2O[C@H]1n1ccc(=O)[nH]c1=O [Compound 22B] | > 10 µM | > 50 µM
23 | COC(=O)CCCCO[P@@]1(=O)OC[C@H]2O[C@@H](n3ccc(=O)[nH]c3=O)[C@](C)(Cl)[C@@H]2O1 [Compound 23A] | 0.25 to 1 µM | > 50 µM
24 | COC(=O)CCCCO[P@]1(=O)OC[C@H]2O[C@@H](n3ccc(=O)[nH]c3=O)[C@](C)(Cl)[C@@H]2O1 [Compound 23B] | 1 to 10 µM | > 50 µM
25 | C#C[C@@]1(O)[C@@H]2O[P@@](=O)(OCCCCC(=O)OC3CCCC3)OC[C@H]2O[C@H]1n1ccc(=O)[nH]c1=O [Compound 24A] | 1 to 10 µM | > 50 µM
26 | C#C[C@@]1(O)[C@@H]2O[P@](=O)(OCCCCC(=O)OC3CCCC3)OC[C@H]2O[C@H]1n1ccc(=O)[nH]c1=O [Compound 24B] | ≤ 0.25 µM | > 50 µM
27 | C#C[C@]1(C)[C@@H]2O[P@@](=O)(OCCC(=O)OC(C)C)OC[C@H]2O[C@H]1n1ccc(=O)[nH]c1=O [Compound 26A] | > 10 µM | > 50 µM
28 | C#C[C@]1(C)[C@@H]2O[P@](=O)(OCCC(=O)OC(C)C)OC[C@H]2O[C@H]1n1ccc(=O)[nH]c1=O [Compound 26B] | > 10 µM | > 50 µM
29 | CC(C)OC(=O)CCO[P@@]1(=O)OC[C@H]2O[C@@H](n3ccc(=O)[nH]c3=O)[C@](C)(N)[C@@H]2O1 [Compound 28A] | > 10 µM | > 50 µM
30 | CC(C)OC(=O)CCO[P@]1(=O)OC[C@H]2O[C@@H](n3ccc(=O)[nH]c3=O)[C@](C)(N)[C@@H]2O1 [Compound 28B] | > 10 µM | > 50 µM
